Measured values reported in patent publication US20240165129A1, “METHODS OF TREATING PAIN AND DEPRESSION” (priority 2022, published 2024).

These compounds were tested on primary cultured mouse cortical neurons. Details: 10 μM, pH 6.0, n=8.

SMILES	protection against acid-induced neuronal injury (LDH release), analogs
CC(C)CCC[C@@H](C)[C@H]1CC[C@H]2[C@@H]3C[C@@H]4O[C@@]45C[C@@H](O)CC[C@]5(C)[C@H]3CC[C@]12C [5α,6α-epoxy-Chol, 5α,6α-epoxycholesterol]	none of them shows significant protection
CC(C)CCC[C@@H](C)[C@H]1CC[C@H]2[C@@H]3C[C@H]4O[C@]45C[C@@H](O)CC[C@]5(C)[C@H]3CC[C@]12C [5β,6β-epoxy-Chol, 5β,6β-epoxycholesterol]	none of them shows significant protection
C[C@@]12CCC[C@H]1[C@@H]1C[C@@H](O)[C@@]3(O)C[C@@H](O)CC[C@]3(C)[C@H]1CC2 [Andro-triol, 5α-androst-3β, 5, 6β-triol]	none of them shows significant protection
